The values that follow come from patent publication US10508099B2, “Isoquinolin-3-yl carboxamides and preparation and use thereof” (Samumed, LLC, priority 2016, dated 2019).

Read-outs that look alike come from different tables or passages of the source. A value given as a limit tells only on which side of the number the result lay.

In assay [1] the test system is TNFα, BV-2 cells. Nature of the assay: Secreted cytokines in Lipopolysaccharide-stimulated BV-2 mouse microglial cells: TNFα. Conditions: LPS 250 ng/mL for 5 h. It is filed as cell-based. The procedure: (§1) Representative compounds were screened using the cell-based assay procedure for secreted cytokines in a Lipopolysaccharide-stimulated mouse glial cell line described below.
(§2) BV-2 cells (mouse microglial cells) were cultured in 1:1 DMEM medium supplemented with 10% FBS, and 1% penicillin/streptomycin.
(§3) BV-2 cells are plated at 35,000 cells/well in a volume of 100 ul for at least 4 hours before compounds are added. DMSO-resuspended compounds were first dispensed in a 96 well plate and serial diluted from 10 μM to 4.6 nM final concentration in medium. Compounds were added to cells overnight. Two hundred fifty ng per milliliter of lipopolysaccharide (Escherichia coli 055:B5, SIGMA) was added for 5 h. Supernatant is removed and saved for further cytokine detection. The original plates with seeded cells were tested for cytotoxicity by measure of adenosine triphosphate (ATP) release by adding CellTiter-Glo® diluted 1:4 in distilled water (G7573, Promega) and transferring lysed cells to a completely black 96-well plate to be read with the Cytation3. Supernatant was then diluted 1:2 with a diluent from V-PLEX cytokine Kit and directly tested for the secreted cytokines TNFα, IL-6 and KC-GRO using electrochemiluminescence (Meso Scale Discovery). The standard curve for each cytokine was used to convert the electrochemiluminescent signal into pg of protein per mL.

Assay [2] relates to IL-6, BV-2 cells. Briefly: Secreted cytokines in Lipopolysaccharide-stimulated BV-2 mouse microglial cells: IL-6. Conditions: LPS 250 ng/mL for 5 h. The assay is classed as cell-based. The protocol: as §1, §2, §3
Assay [3] deals with KC-GRO, BV-2 cells. Briefly: Secreted cytokines in Lipopolysaccharide-stimulated BV-2 mouse microglial cells: KC-GRO. The assay is classed as cell-based. Conditions: LPS 250 ng/mL for 5 h. The protocol: as §1, §2, §3
Assay [4] deals with SW480 colon carcinoma cells. Briefly: Cell viability assay (CellTiter-Glo) in SW480 cells. The assay is classed as cell-based, human. Conditions: for EC50: four days incubation. In general terms: Cellular ATP, detected with luciferase, serves as a proxy for viable cell number.
The test system of assay [5] is IL-6 in huPBMCs. Briefly: IL-6 inhibition in LPS-stimulated human peripheral blood mononuclear cells (HTRF). The assay is classed as cell-based. Conditions: for EC50: LPS-stimulated (50 ng/mL) huPBMCs, 22 hours, dose-response starting from 10 μM; for percent in parentheses beside EC50 >10 μM: LPS-stimulated huPBMCs, given only where EC50 >10 μM (top concentration 10 μM). (In general: In TR-FRET formats the signal depends on donor and acceptor labels being close together.)
Description: After 22 hour incubation, a mixture of anti-IL6 XL665 and anti-IL-6 Cryptate diluted in reconstitution buffer (Catalog #62IL6PEC, Cisbio Inc., Bedford, Mass.) was added to each well. […] All samples were processed in duplicate. […] EC50 was determined using software generated by Dotmatics Limited (Windhill Bishops Stortford Herts, UK) using the Levenberg-Marquardt 4 parameter fitting procedure with finite different gradients.

The target of assay [6] is DYRK1A kinase (Homo sapiens (Human), UniProt Q13627). Nature of the assay: DYRK1A kinase assay (Ser/Thr 18 peptide Z-lyte FRET). The assay is classed as biochemical.
For assay [7], the system named is Tau phosphorylation at Ser396 (pSer396) in SH-SY5Y cells. Nature of the assay: Tau phosphorylation (pSer396) assay in SH-SY5Y cells, ELISA/western blot. It is filed as cell-based, human. Background: ELISA stands for enzyme-linked immunosorbent assay.
Description: Two days before treatment, cells were seeded onto 96 well plates at 5×10^4 cells/well.
Wells were visually checked for cell death or change in morphology and supernatants were tested for cytotoxicity by measurement of lactate dehydrogenase release (LDH, CytoToxOne kit, Promega) if necessary.
Cells were lysed with RIPA buffer complemented with phosphatase and protease inhibitors then lysates were spun down at 12,000 g for 10 min to remove any cellular debris. Lysates are then either directly tested for pSer396 by ELISA (Life Technology, Kit KHB7031) or loaded on NuPage Bis-Tris gels for western blot analysis. Colorimetric detection of ELISA signal is performed by Cytation3 plate reader (Biotek) and the chemiluminescence signal for HRP-linked antibodies used in western blotting is detected using a Carestream Image Station. The same pSer396 antibody is used for detection of pTau in both assays.
The test system of assay [8] is α-smooth muscle actin (αSMA) in LL29 cells. Briefly: Fibrosis assay: TGF-β1 treated primary human fibroblasts from IPF patients (LL29), αSMA staining. Conditions: for EC50: LL29 cells treated with TGF-β1 (20 ng/mL), 4 days; for percent in parentheses beside EC50 >10 μM: LL29 cells treated with TGF-β1, given only where EC50 >10 μM (top concentration 10 μM). The assay is classed as cell-based.

The test system of assay [9] is Wnt activity (Sp5-Luc reporter, TCF/LEF binding sites) in SW480 colon carcinoma cells. Briefly: Screening assay for Wnt activity: Sp5-Luc reporter gene assay in SW480 cells. The assay is classed as cell-based, human. Conditions: 36 to 48 hours.
Description: The screening assay for Wnt activity is described as follows.
Following incubation, 15 μl of BriteLite Plus luminescence reagent (Perkin Elmer) was added to each well of the 384-well assay plates. The plates were placed on an orbital shaker for 2 min and then luminescence was quantified using the Envision (Perkin Elmer) plate reader.
Assay [10] deals with GSK3β kinase (Homo sapiens (Human), UniProt P49841). Briefly: GSK3β kinase assay (Ser/Thr 09 peptide Z-lyte FRET). It is filed as biochemical.
The subject of assay [11] is secreted β-amyloid 40 (Aβ40) peptide, SH-SY5Y-APP cells. Nature of the assay: Secreted β-amyloid 40 peptide assay in APP overexpressing SH-SY5Y-APP cells. The assay is classed as cell-based. Conditions: Homo sapiens, overnight (16-18 hours).
Description: Representative compounds were screened using the cell-based assay procedure for secreted β-amyloid 40 (Aβ340) peptide in an APP overexpressing cell line described below.
SH-SY5Y cells were infected with lentivirus to overexpress amyloid (A4) beta precursor protein (APP), hereafter referred to as the SH-SY5Y-APP cells. […] Culture medium was changed 18 h post-transfection before a first batch of viral supernatant was then harvested at 42 h post-transfection. Culture medium was replenished once more before a second batch of viral supernatant was harvested 66 h post-transfection.
SH-SY5Y cells were seeded onto 6-well plates at 5.0×10^5 cells/well and incubated overnight at 37° C. Cells were then infected with viral supernatant at concentrations ranging from 10%→100% viral supernatant (diluted in Opti-MEM as appropriate), with 10 μg/mL Polybrene added for permeability (H9268, Sigma). […]
The cell assay procedure start 18 h prior to treatment, as SH-SY5Y-APP cells were seeded onto 96-well plates at 2.0×10^4 cells/well. […] The original plates with seeded cells were tested for cytotoxicity by measure of adenosine triphosphate (ATP) release by adding CellTiter-Glo® diluted 1:4 in distilled water (G7573, Promega) and transferring lysed cells to a completely black 96-well plate to be read with the Cytation3. […]
Where [12] appears, read: DYRK1A kinase Z-lyte assay, 30 μM ATP, one hour at room temperature, text calls values IC50.
Setting [13] is: overnight (16-18 h) exposure, pSer396 Tau ELISA, read-out: pSer396 Tau EC50.
The mark [14] stands for this setting: GSK3β kinase Z-lyte assay, 46 μM ATP, one hour at room temperature, text calls values IC50.
[15] abbreviates: Homo sapiens, overnight (16-18 h) exposure, pSer396 Tau ELISA, read-out: pSer396 Tau EC50.
Setting [16] is: Homo sapiens, Fibroblast, 96 h, dose-response 10 μM to 0.94 nM.

GSK3β kinase, sequence (P49841 whole entry): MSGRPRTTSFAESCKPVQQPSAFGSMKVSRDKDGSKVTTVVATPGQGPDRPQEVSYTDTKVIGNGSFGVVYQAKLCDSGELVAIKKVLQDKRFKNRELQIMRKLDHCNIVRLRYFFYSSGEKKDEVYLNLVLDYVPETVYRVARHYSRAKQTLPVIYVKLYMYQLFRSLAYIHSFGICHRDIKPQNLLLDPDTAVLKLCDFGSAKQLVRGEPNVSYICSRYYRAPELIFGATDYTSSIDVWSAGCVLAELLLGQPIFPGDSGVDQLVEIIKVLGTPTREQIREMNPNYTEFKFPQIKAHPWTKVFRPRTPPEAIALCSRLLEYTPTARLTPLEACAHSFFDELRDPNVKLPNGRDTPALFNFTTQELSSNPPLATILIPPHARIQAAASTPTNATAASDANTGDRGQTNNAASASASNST

Regarding “1-Isobutyl-N-(6-(5-methyl-1,3,4-oxadiazol-2-yl)isoquinolin-3-yl)piperidine-4-carboxamide [Compound 1020]”, the concentration giving a half-maximal response (EC50) stood at 597 nM in assay [1]; 87 nM in assay [2]; 708 nM in assay [3]; 1030 nM in assay [4]; 1180 nM in [5]; 10.4 nM in assay [6] (setting [12]). In addition, the EC50 in assay [7] (setting [13]) was 49 nM; in [8] (dose-response 10 μM to […]), more than 10000 nM; in assay [9], 1140 nM; in assay [10] (setting [14]), 13 nM. Besides, in assay [8], the “percent in parentheses beside EC50 >10 μM” value came to 30.6%.

Consider `Cn1cncc1-c1ccc2cnc(NC(=O)C3C(C)(C)C3(C)C)cc2c1` [Compound 269, 2,2,3,3-Tetramethyl-N-[6-(3-methylimidazol-4-yl)-3-isoquinolyl]cyclopropanecarboxamide], for which the IC50 in assay [11] was more than 10000 nM.

With `Cn1cc(-c2ccc3cnc(NC(=O)C4C(C)(C)C4(C)C)cc3c2)nn1` [Compound 277, 2,2,3,3-Tetramethyl-N-(6-(1-methyl-1H-1,2,3-triazol-4-yl)isoquinolin-3-yl) cyclopropane-1-carboxamide], the “percent in parentheses beside EC50 >10 μM” value in [5] is on record as 4.0%.

For the molecule `C[C@H](F)CN1CCC(C(=O)Nc2cc3cc(-c4cnn(C)c4)ccc3cn2)CC1` [Compound 311, (S)-1-(2-Fluoropropyl)-N-(6-(1-methyl-1H-pyrazol-4-yl)isoquinolin-3-yl) piperidine-4-carboxamide], the EC50 in [4] (Homo sapiens, 96 h) came out at 751 nM; in assay [5] (Homo sapiens, PBMC), 396 nM; in [7] (setting [15]) it was 163 nM; in assay [8] (setting [16]), 76 nM; in [9] (Homo sapiens), 578 nM.

Turning to `Cn1cc(-c2ccc3cnc(NC(=O)CN4C5CCC4COC5)cc3c2)cn1` [Compound 347, 2-(3-Oxa-8-azabicyclo[3.2.1]octan-8-yl)-N-(6-(1-methyl-1H-pyrazol-4-yl)isoquinolin-3-yl)acetamide], the “percent in parentheses beside EC50 >10 μM” value in assay [5] is 4.5%.

In the case of `Cn1cc(-c2ccc3cnc(NC(=O)CN4C5CCC4CC5)cc3c2)nn1` [Compound 513, 2-(7-Azabicyclo[2.2.1]heptan-7-yl)-N-(6-(1-methyl-1H-1,2,3-triazol-4-yl)isoquinolin-3-yl)acetamide], the “percent in parentheses beside EC50 >10 μM” value in [5] amounted to 14.5%.

Regarding `Cc1nnc(-c2ccc3cnc(NC(=O)CN4C5CCC4CC5)cc3c2)s1` [Compound 959, 2-(7-Azabicyclo[2.2.1]heptan-7-yl)-N-(6-(5-methyl-1,3,4-thiadiazol-2-yl)isoquinolin-3-yl)acetamide], in [5], the “percent in parentheses beside EC50 >10 μM” value is 6.1%.

On to `Cc1nnc(-c2ccc3cnc(NC(=O)CN4C5CCC4COC5)cc3c2)s1` [Compound 962, 2-(3-Oxa-8-azabicyclo[3.2.1]octan-8-yl)-N-(6-(5-methyl-1,3,4-thiadiazol-2-yl)isoquinolin-3-yl)acetamide], for which the “percent in parentheses beside EC50 >10 μM” value in assay [5] is given as 9.6%.

Consider `CO[C@H]1CC[C@@H](C(=O)Nc2cc3cc(-c4nnc(C)s4)ccc3cn2)CC1` [Compound 1001, cis-4-Methoxy-N-(6-(5-methyl-1,3,4-thiadiazol-2-yl)isoquinolin-3-yl) cyclohexane-1-carboxamide], for which the inhibition at 10 µM in assay [5] (Homo sapiens, PBMC, read-out: percent in parentheses beside EC50 >10 μM) is 49.7%.

Consider `CC(C)CN1CCC[C@@H](C(=O)Nc2cc3cc(-c4cnn5c4CN(CCF)CC5)ccc3cn2)C1` [Compound 1002, (R)—N-(6-(5-(2-Fluoroethyl)-4,5,6,7-tetrahydropyrazolo[1,5-a]pyrazin-3-yl)isoquinolin-3-yl)-1-isobutylpiperidine-3-carboxamide], for which the “percent in parentheses beside EC50 >10 μM” value in assay [8] came out at 27.5%.

As to `CN1CCN(C[C@H]2CC[C@H](C(=O)Nc3cc4cc(-c5cnco5)ccc4cn3)CC2)CC1` [Compound 1007, trans-4-((4-methylpiperazin-1-yl)methyl)-N-(6-(oxazol-5-yl)isoquinolin-3-yl)cyclohexane-1-carboxamide], the EC50 in assay [4] (Homo sapiens, 96 h) stood at 922 nM; in assay [5] (Homo sapiens, PBMC) it was 1260 nM; in [6] (setting [12]), 2.4 nM; in [7] (setting [15]) it was 435 nM; in assay [8] (setting [16]), 942 nM; in assay [9] (Homo sapiens) it was 1130 nM. For the same molecule, the midpoint of the response in [10] (setting [14]), the EC50, lay at 83 nM.

As to `Cc1nnc(-c2ccc3cnc(NC(=O)CN4CCCOCC4)cc3c2)s1` [Compound 1049, N-(6-(5-Methyl-1,3,4-thiadiazol-2-yl)isoquinolin-3-yl)-2-(1,4-oxazepan-4-yl) acetamide], the “percent inhibition at 10 μM” value in assay [4] (at 10 μM, given for EC50 of >10 μM) was determined as 31.3%. Moreover, the EC50 in assay [4] was more than 10000 nM; in [5] it was more than 10000 nM; in assay [7] (setting [13]) it was 319 nM; in assay [9] it was 2540 nM. Further, the “percent in parentheses beside EC50 >10 μM” value in assay [5] is given as 10.4%.

For the molecule `Cn1cc(-c2ccc3cnc(NC(=O)C4CCN(CC(C)(C)O)CC4)cc3c2)nn1` [Compound 1070, 1-(2-Hydroxy-2-methylpropyl)-N-(6-(1-methyl-1H-1,2,3-triazol-4-yl)isoquinolin-3-yl)piperidine-4-carboxamide], the EC50 was found to be 14 nM in assay [2] (Mus musculus); 8390 nM in assay [4] (Homo sapiens, 96 h); 6470 nM in assay [5] (Homo sapiens, PBMC); 7.6 nM in [6]; 91 nM in assay [7] (setting [15]); 738 nM in assay [9] (Homo sapiens). The same molecule returned a concentration for a half-maximal effect (EC50) in assay [10] of 16 nM.

For `Cn1cc(-c2ccc3cnc(NC(=O)C45CCN(CC4)CC5)cc3c2)cn1` [Compound 1071, N-(6-(1-Methyl-1H-pyrazol-4-yl)isoquinolin-3-yl)quinuclidine-4-carboxamide], the “percent in parentheses beside EC50 >10 μM” value in assay [5] worked out at 8.8%.

Take `CCN1/C(=C/C(C)=O)Sc2ccc(O)cc21` [Indy, reference compound]: the 50% effective concentration (EC50) in [7] (control compounds, read-out: EC50 in the Tau assay) was more than 10000 nM.

For orientation: EC50 means the concentration needed to bring the measured effect to its halfway point. In general, IC50 refers to the point on the concentration scale where inhibition reaches its midpoint. Low readings indicate higher potency, high ones lower potency.
